Experimental data as given in patent US9771358B2, “Dihydropyrimidine compounds and their application in pharmaceuticals” (SUNSHINE LAKE PHARMA CO., LTD., priority 2014, dated 2017).

Tested on: HBV
Test: In-vitro anti-HBV activity in stable HBV-producing cell line (HepG2.2.15), HBV DNA by qPCR
Assay type: cell-based
Details: Hepatitis B virus, 168 h; HepG2.2.15 cells, HBV DNA in culture fluid, day 7, top concentration 16.4 μM
Protocol: HBV DNA contents in cell culture fluid were detected by the qPCR-based assay and 50% effective concentration (EC50) values of the compounds against HBV were calculated. Specific procedures are as follows:
HepG2.2.15 cells were seeded into each well of 96-well plates, 40,000 cells per well. Cells were treated with cell culture medium containing compounds with different concentrations for 24 hours after cell seeding. The final concentration of each compound was 16.4 μM in each well and each compound was diluted to desired concentration using 3-fold gradient dilution protocol, 9 diluted points in duplicate. The culture mediums containing the compounds were refreshed on day 4 post cell seeding. Culture media were collected from the HepG2.2.15 plates on day 7 post cell seeding followed by HBV DNA extraction.
HBV DNA extraction: The HBV DNA extraction was performed using QIAamp 96 DNA Blood Kit (QIAGEN 51161).
PCR for quantification: PCR mix was prepared according to PCR system. PCR mix was dispensed to 96-well optical reaction plates (special for quantification). The standard diluted proportionally was added. Then the sample was added; The plates were sealed with optical adhesive film; PCR system was performed according to programs.
Percentage of HBV inhibition of DNA replication by compound was calculated using the following equation: % Inh.=[1-HBV DNA quantity of sample/HBV DNA quantity of DMSO control]×100.
Calculating EC50 value of compounds to HBV replication: the EC50 values were calculated based on “four-parameter logistic equation” and using GraphPad Prism 5 analysis software.

Row | Compound | EC50 [nM]
1 | COC(=O)C1=C(CN2CCOC(CCC(=O)O)C2)NC(c2nccs2)=NC1c1ccc(F)cc1Br (racemic) [contrast 4, 3-(4-((6-(2-bromo-4-fluorophenyl)-5-(methoxycarbonyl)-2-(thiazol-2-yl)-3,6-dihydropyrimidin-4-yl)methyl)morpholin-2-yl)propanoic acid, reference compound] | 250
2 | CCOC(=O)C1=C(CN2CCOC[C@H]2CCC(=O)O)NC(c2nccs2)=N[C@@H]1c1ccc(F)cc1Br [Example 47, 3-((R)-4-(((S)-6-(2-Bromo-4-fluorophenyl)-5-(ethoxycarbonyl)-2-(thiazol-2-yl)-3,6-dihydropyrimidin-4-yl)methyl)morpholin-3-yl)propanoic acid] | > 16400
3 | COC(=O)C1=C(CN2CCO[C@@H](CCC(=O)O)C2)NC(c2nccs2)=N[C@@H]1c1ccc(Cl)cc1Cl [Example 46, 3-((S)-4-(((S)-6-(2,4-Dichlorophenyl)-5-(methoxycarbonyl)-2-(thiazol-2-yl)-3,6-dihydropyrimidin-4-yl)methyl)morpholin-2-yl)propanoic acid] | > 14200
4 | CCOC(=O)C1=C(CN2CCO[C@H](CC(C)C(=O)O)C2)NC(c2nccs2)=N[C@H]1c1ccc(F)cc1Br (stereo partly drawn) [Example 3, 3-((R)-4-(((R)-6-(2-Bromo-4-fluorophenyl)-5-(ethoxycarbonyl)-2-(thiazol-2-yl)-3,6-dihydropyrimidin-4-yl)methyl)morpholin-2-yl)-2-methylpropanoic acid] | 135
5 | COC(=O)C1=C(CN2CCOCC2CCC(=O)O)NC(c2nccs2)=NC1c1ccc(Cl)cc1Cl (racemic) [contrast 10, 3-(4-((6-(2,4-dichlorophenyl)-5-(methoxycarbonyl)-2-(thiazol-2-yl)-3,6-dihydropyrimidin-4-yl)methyl)morpholin-3-yl)propanoic acid, reference compound] | 59
6 | CCOC(=O)C1=C(CN2CCO[C@H](CCC(=O)O)C2)NC(c2nccs2)=N[C@@H]1c1ccc(F)cc1Br [Example 35, 3-((R)-4-(((S)-6-(2-Bromo-4-fluorophenyl)-5-(ethoxycarbonyl)-2-(thiazol-2-yl)-3,6-dihydropyrimidin-4-yl)methyl)morpholin-2-yl)propanoic acid] | > 12200
7 | CCOC(=O)C1=C(CN2CCOC(CCC(=O)O)C2)NC(c2nccs2)=NC1c1ccc(F)cc1Cl (racemic) [contrast 2, 3-(4-((6-(2-chloro-4-fluorophenyl)-5-(ethoxycarbonyl)-2-(thiazol-2-yl)-3,6-dihydropyrimidin-4-yl)methyl)morpholin-2-yl)propanoic acid, reference compound] | 360
8 | COC(=O)C1=C(CN2CCO[C@@H](CCC(=O)O)C2)NC(c2nccs2)=N[C@@H]1c1ccc(F)cc1Br [Example 42, 3-((S)-4-(((S)-6-(2-Bromo-4-fluorophenyl)-5-(methoxycarbonyl)-2-(thiazol-2-yl)-3,6-dihydropyrimidin-4-yl)methyl)morpholin-2-yl)propanoic acid] | > 15300
9 | CCOC(=O)C1=C(CN2CCOCC2CCC(=O)O)NC(c2nccs2)=NC1c1ccc(Cl)cc1Cl (racemic) [contrast 9, 3-(4-((6-(2,4-dichlorophenyl)-5-(ethoxycarbonyl)-2-(thiazol-2-yl)-3,6-dihydropyrimidin-4-yl)methyl)morpholin-3-yl)propanoic acid, reference compound] | 63
10 | CCOC(=O)C1=C(CN2CCO[C@@H](CCC(=O)O)C2)NC(c2nccs2)=N[C@@H]1c1ccc(F)cc1Br [Example 36, 3-((S)-4-(((S)-6-(2-Bromo-4-fluorophenyl)-5-(ethoxycarbonyl)-2-(thiazol-2-yl)-3,6-dihydropyrimidin-4-yl)methyl)morpholin-2-yl)propanoic acid] | > 14500
11 | CCOC(=O)C1=C(CN2CCOC[C@@H]2CCC(=O)O)NC(c2nccs2)=N[C@H]1c1ccc(F)cc1Br [Example 15, 3-((S)-4-(((R)-6-(2-Bromo-4-fluorophenyl)-5-(ethoxycarbonyl)-2-(thiazol-2-yl)-3,6-dihydropyrimidin-4-yl)methyl)morpholin-3-yl)propanoic acid] | 7.94
12 | CCOC(=O)C1=C(CN2CCO[C@@H](CCC(=O)O)C2)NC(c2nccs2)=N[C@H]1c1ccc(F)cc1Br [Example 21, 3-((S)-4-(((R)-6-(2-Bromo-4-fluorophenyl)-5-(ethoxycarbonyl)-2-(thiazol-2-yl)-3,6-dihydropyrimidin-4-yl)methyl)morpholin-2-yl)propanoic acid] | 93.6
13 | COC(=O)C1=C(CN2CCOCC2CCC(=O)O)NC(c2nccs2)=NC1c1ccc(F)cc1Cl (racemic) [contrast 8, 3-(4-((6-(2-chloro-4-fluorophenyl)-5-(methoxycarbonyl)-2-(thiazol-2-yl)-3,6-dihydropyrimidin-4-yl)methyl)morpholin-3-yl)propanoic acid, reference compound] | 90
14 | COC(=O)C1=C(CN2CCO[C@@H](CCC(=O)O)C2)NC(c2nccs2)=N[C@H]1c1ccc(F)cc1Br [Example 22, 3-((S)-4-(((R)-6-(2-Bromo-4-fluorophenyl)-5-(methoxycarbonyl)-2-(thiazol-2-yl)-3,6-dihydropyrimidin-4-yl)methyl)morpholin-2-yl)propanoic acid] | 89
15 | COC(=O)C1=C(CN2CCO[C@@H](CCC(=O)O)C2)NC(c2nccs2)=N[C@@H]1c1ccc(F)cc1Cl [Example 40, 3-((S)-4-(((S)-6-(2-Chloro-4-fluorophenyl)-5-(methoxycarbonyl)-2-(thiazol-2-yl)-3,6-dihydropyrimidin-4-yl)methyl)morpholin-2-yl)propanoic acid] | > 16400
16 | COC(=O)C1=C(CN2CCOC[C@@H]2CCC(=O)O)NC(c2nccs2)=N[C@H]1c1ccc(Cl)cc1Cl [Example 20, 3-((S)-4-(((R)-6-(2,4-Dichlorophenyl)-5-(methoxycarbonyl)-2-(thiazol-2-yl)-3,6-dihydropyrimidin-4-yl)methyl)morpholin-3-yl)propanoic acid] | 5.5
17 | COC(=O)C1=C(CN2CCOC[C@H]2CCC(=O)O)NC(c2nccs2)=N[C@@H]1c1ccc(F)cc1Br [Example 49, 3-((R)-4-(((S)-6-(2-Bromo-4-fluorophenyl)-5-(methoxycarbonyl)-2-(thiazol-2-yl)-3,6-dihydropyrimidin-4-yl)methyl)morpholin-3-yl)propanoic acid] | > 16400
18 | CCOC(=O)C1=C(CN2CCOC(CCC(=O)O)C2)NC(c2nccs2)=NC1c1ccc(F)cc1Br (racemic) [contrast 1, 3-(4-((6-(2-bromo-4-fluorophenyl)-5-(ethoxycarbonyl)-2-(thiazol-2-yl)-3,6-dihydropyrimidin-4-yl)methyl)morpholin-2-yl)propanoic acid, reference compound] | 260
19 | CCOC(=O)C1=C(CN2CCO[C@@H](CCC(=O)O)C2)NC(c2nccs2)=N[C@H]1c1ccc(Cl)cc1Cl [Example 25, 3-((S)-4-(((R)-6-(2,4-Dichlorophenyl)-5-(ethoxycarbonyl)-2-(thiazol-2-yl)-3,6-dihydropyrimidin-4-yl)methyl)morpholin-2-yl)propanoic acid] | 86
20 | COC(=O)C1=C(CN2CCO[C@H](CCC(=O)O)C2)NC(c2nccs2)=N[C@@H]1c1ccc(F)cc1Cl [Example 39, 3-((R)-4-(((S)-6-(2-Chloro-4-fluorophenyl)-5-(methoxycarbonyl)-2-(thiazol-2-yl)-3,6-dihydropyrimidin-4-yl)methyl)morpholin-2-yl)propanoic acid] | > 15200
